Data taken from patent US5824646A, “Intravaginal delivery of biologically active polypeptides” (Teikoku Seiyaku Co., Ltd., priority 1997, dated 1998).
Where no end group is shown, it is not given here.

Key:
oophorectomized rats [1] = assay: Serum calcium and serum calcitonin after intravaginal S-CT suppository; type: in vivo, rat; conditions: PEG suppository, 250 micrograms S-CT, BSA, Nonidet P-40, sodium caprate, 1, 2 and 4 hrs
Procedure: The model animals and experimental procedures are similar to that described in Example 10. The suppositories used in this Example were prepared as follows. 1 mg of S--CT was dissolved in 100 microliters of 0.1M acetate buffer solution (pH 5) containing 1.5 mg of BSA (bovine serum albumin), 10 mg of Nonidet P-40, and 5 mg of sodium caprate. 383 mg of suppository base composed of PEG 4000 (33%), PEG 6000 (47%) and distilled water (20%) was warmed to 45° to 50° C., then mixed well with the S--CT solution using a Vortex mixer for 1 min, then transferred into a brass suppository mold and cooled to approximately 4° C. for 2 hrs. 125 mg of S--CT suppository contained 250 micrograms of S--CT. 250 micrograms of a S--CT suppository was administered into the rat vagina. 1, 2, and 4 hrs after administration, blood samples were taken, and the serum calcium concentration and the serum calcitonin were determined by the same method used in Example 10.

oophorectomized rats [2] = assay: Serum calcitonin (RIA) and serum calcium after intravaginal human calcitonin with SDS; type: in vivo, rat; conditions: 10-200 micrograms HCT per kg, 0.3% BSA, 1 w/v% SDS, pH 5, 2 hours
Procedure: Similarly to Examples 1 and 2, oophorectomized rats were used in this experiment. 1000 micrograms of Human calcitonin (HCT) was dissolved in 1 ml of 0.1M acetate buffer (pH 5) containing 0.3 w/v% bovine serum albumin and 1 w/v% SDS. 10, 25, 50, 100 and 200 micrograms of HCT (protein weight) in solution per 1 kg body weight of rats were taken out of the HCT solution mentioned above, and each portion of the HCT solution was diluted up to 50 microliters with 0.1M acetate buffer (pH 5) containing 0.3% (w/v%) bovine serum albumin and 1 w/v% SDS. Each 50 microliters of HCT solution with a different amount of HCT was administered into the vagina with a small cotton ball. Two hours after drug administration, blood was extracted from the right external jugular vein of the anesthetized rat, and serum calcium was determined with a Calcium C test kit. Serum calcitonin was also determined by a radioimmunoassay method (RIA method), using human calcitonin antibody.

oophorectomized rats [3] = assay: Serum H-CT (RIA) and serum calcium after intravaginal H-CT with sodium caprate and Nonidet P-40; type: in vivo, rat; conditions: 250 micrograms H-CT, 0.3% BSA, 1% sodium caprate, 2% Nonidet P-40, pH 5, 1, 2 and 4 hours
Procedure: Oophorectomized rats were used in this experiment in a similar manner as Example 3. 1 mg of H--CT was dissolved in 400 microliters of 0.1M acetate buffer (pH 5) containing 0.3 w/v% bovine serum albumin (BSA) and 1% sodium caprate and 2% Nonidet P-40. 100 microliters of H--CT solution (250 micrograms H--CT) was administered into the vagina of the rat with a small cotton ball. Blood samples were taken from the right external jugular vein of the anesthetized rats at 1, 2 and 4 hours after administration. Serum calcium was determined with a Calcium C test kit. Serum H--CT was also determined by the RIA method using human calcitonin antibody.

[4] = test system: 5-week-old Wister male rats; assay: Effect of SDS on calcitonin stability: bioassay of stored preparations by intramuscular injection; type: in vivo, rat
Procedure: A porcine calcitonin (P--CT) pharmaceutical preparation according to the invention was prepared by the method described in Examples 1 and 2, and the stability of porcine calcitonin in the resultant preparation was investigated. Thus, 1 ml of 3 mg/ml bovine serum albumin (BSA) solution was added to 40 I.U. of porcine calcitonin, and the mixture was divided into two equal portions. SDS was added to one of the portions to make a final concentration of 0.1 w/v%; and no SDS was added to the other portion. The pH of both of the preparations was then adjusted to pH 5 with acetic acid/sodium acetate buffer (0.1M) solution. These two preparations were then stored at 37° C. for 8 days. The biological activity of calcitonin of the 8-day stored preparations was then investigated using 5-week-old Wister male rats. A dosage of 0.12 I.U./kg calcitonin of these two preparations was administered to the rats by injection into the femoral muscle. One hour after drug administration, blood was extracted from the right external jugular vein, and the blood calcium content was determined.

[5] = test system: 5-week-old male Wister rats; assay: Effect of pH and human serum albumin on calcitonin stability: bioassay by intramuscular injection; type: in vivo, rat; conditions: 0.03 I.U./ml, 4° C. for one week, bioassay 0.06 I.U./kg i.m.
Procedure: Using blood calcium decreasing ratio as an indication, the effect of pH and human serum albumin (HSA) on the stability of calcitonin in the preparation of this invention was investigated using 5-week-old male Wister rats.
Purified porcine calcitonin (P--CT) was dissolved in 0.1M acetic acid buffer solutions of pH 3.0 and pH 5.0 and 0.1M phosphoric acid buffer solution of pH 6.8 so that each of the solutions contained 0.03 I.U./ml of porcine calcitonin. Each calcitonin solution (pH 3.0, 5.0, 6.8) was divided into two parts. In each case, to one portion of the calcitonin solutions 3 mg/ml of HSA was added, while no treatment was performed on the other portion. The resultant preparations were stored at 4° C. for one week. These calcitonin preparations were then each injected into the femoral bicipital muscle of the rats at a dosage of 0.06 I.U. per kg body weight. An appropriate quantity of blood was extracted from the right external jugular vein, and blood […] was determined with a Calcium C-Test kit.

[6] = test system: oophorectomized female Wister rats; assay: Serum calcium decrease after intravaginal porcine calcitonin in young oophorectomized rats; type: in vivo, rat
Procedure: Oophorectomy was performed on 5- to 6-week old female Wister rats which, after about one month, were used in this experiment as an animal model for postmenopausal women.
To 20 I.U. porcine calcitonin, 3 mg of bovine serum albumin (BSA) was added. Sodium lauryl sulfate (hereinafter called "SDS") was then added to the above-prepared mixture to make 0.05, 0.1, 0.5 and 1 w/v% concentrations, respectively. The mixtures of different SDS concentrations were then each diluted with 0.1M acetic acid/sodium acetate buffer solution (pH 5.0) to make 1 ml calcitonin solutions. Rats were anesthetized with ether, and a required amount of blood was taken from the right external jugular vein before the administration of calcitonin. After a small cotton ball was inserted into the vagina of the rat, each 50 microliters of calcitonin solution of different SDS concentrations was administered. Blood was again extracted 2 hours after calcitonin administration.
After the separation of blood serum, serum calcium concentration was determined with a Calcium C test kit, a registered trademark at Wako Chemical in Japan. The results are depicted in FIG. 1.
Oophorectomized menopausal model rats were used in this experiment, similarly to Example 1.
Bovine serum albumin was added to each 1 ml of 2, 10, 20, 40 and 80 I.U./ml of porcine calcitonin dissolved in acetic acid buffer solution (pH 5.0) to make 3 mg/ml. Then, SDS was added to each solution to make 1 w/v%. Similarly to Example 1, these preparations containing different concentrations of calcitonin were administered intravaginally to the rats, and the serum calcium concentration was determined. […] The largest ratio of decreased serum calcium against control noted in this experiment was 30%.

[7] = test system: aged, oophorectomized rats; assay: Serum calcium decrease by porcine calcitonin in aged oophorectomized rats; type: in vivo, rat; conditions: intramuscular injection (femoral bicipital muscle), different concentrations
Procedure: The ovaries of 30-week-old female Wister rats were excised about one month before use in the experiment.
Prior to this experiment, a separate experiment was performed to investigate the susceptibility of aged, oophorectomized rats to porcine calcitonin. Different concentrations of calcitonin were injected into rats in the femoral bicipital muscle, and the decreasing serum calcium was determined.
Following the procedure of Examples 1 and 2, a dose of 4 I.U. calcitonin per rat was prepared and administered intravaginally by inserting a small cotton ball in the vagina. Following the procedure of Examples 1 and 2, blood was extracted and the blood calcium concentration was determined.

intravaginal protease = assay: Protease activity of vaginal wash with BAEE as substrate after intravaginal preparation; type: biochemical, rat
Procedure: The calcitonin pharmaceutical preparation was prepared according to Examples 1 and 2. The preparation was inserted into the vagina with a small cotton ball. Two hours after the insertion, the inserted cotton ball was removed from the vagina. The vagina was then washed with a fixed quantity of phosphate buffered saline solution, the washed solution was combined with the cotton ball, and the protease activity was determined with BAEE as substrate.

oophorectomized rats [8] = assay: Serum glucose after intravaginal insulin preparation; type: in vivo, rat; conditions: 5 U. insulin, 1 w/v% SDS
Procedure: The oophorectomized rats described in Example 1 were used in this experiment. The insulin pharmaceutical preparation prepared according to this invention was administered intravaginally to the rats, and the change in plasma glucose was investigated. Bovine serum albumin and SDS were added to a solution of 100 U./ml insulin in 0.1M acetic acid/sodium acetate buffer solution to make a final concentration of 3 mg/ml and 1 w/v%, respectively. The pH was adjusted to 5.0 with 0.1M acetic acid/sodium acetate buffer solution. The 5 U. insulin preparation was administered into the vagina of the rat with a small cotton ball. Serum glucose at 2 hours after drug administration was compared with that before drug administration. It was noted that at 2 hours after drug administration, the blood sugar level decreased about 30% in comparison with that prior to drug administration.

[9] = 3 mg/ml BSA, pH 5.0, after 2 hours

salmon calcitonin [S--CT]
absorption of S-CT and its biological activity (oophorectomized rats [1]): exhibit a dose-dependent response

Human calcitonin [HCT]
serum calcitonin (RIA) (oophorectomized rats [2]): increased proportionally to the increase in the dosage of calcitonin administered into the vagina | serum calcium (oophorectomized rats [2]): decreased correspondingly with increase in calcitonin dosage | serum calcitonin (RIA) (oophorectomized rats [3]): increased proportionally to the increase in the dosage of calcitonin administered into the vagina | serum calcium (oophorectomized rats [3]): decreased correspondingly with an increase in calcitonin dosage

porcine calcitonin (CSNLSTCVLSAYWRNLNNFHRFSGMGFGPETP; ends and bridges not checked; cysteine pairing not given here; UniProt P01259 1-32, looked up) [P-CT]
Ratio of Decreased Calcium Concentration Against Control, 0 day ([4]; P-CT (40 I.U.)/0.3% BSA/ml, pH 5.0, freshly made, 0.12 I.U./kg i.m., 1 hour): 20.7 | Ratio of Decreased Calcium Concentration Against Control, 8 days (at 37° C.) ([4]; P-CT (40 I.U.)/0.3% BSA/ml, pH 5.0, stored 8 days at 37° C., 0.12 I.U./kg i.m., 1 hour): 11.1 | biological activity after the 8-day storage period ([4]; stored at 37° C. for 8 days, pH 5, compared with freshly made preparation): decreased to about half that of the freshly made preparation | stability of calcitonin in pH 6.8 solution with HSA ([5]; 3 mg/ml HSA added): became as stable as calcitonin in a solution of pH 3.0 or 5.0 | stability of calcitonin in buffer solutions without HSA, pH 3.0 and 5.0 ([5]; 0.1M acetic acid buffer): stable | stability of calcitonin in buffer solution without HSA, pH 6.8 ([5]; 0.1M phosphoric acid buffer): unstable | ratio of decreased serum calcium against control (dose response) ([6]; 2, 10, 20, 40 and 80 I.U./ml porcine calcitonin, 3 mg/ml BSA, 1 w/v% SDS, pH 5.0, intravaginal): exhibited an increase proportional to the increase of calcitonin concentration | largest ratio of decreased serum calcium against control ([6]; 2-80 I.U./ml porcine calcitonin, 3 mg/ml BSA, 1 w/v% SDS, intravaginal, young oophorectomized rats): 30% | largest ratio of decreased serum calcium against control [7]: about 10%

CCCCCCCCCCCCOS(=O)(=O)[O-].[Na+] [SDS, Sodium lauryl sulfate]
decrease of protease activity in comparison with the control group (intravaginal protease; 1% SDS added group versus control without SDS): about 30% | protease activity relative to control (control = 100.0) (intravaginal protease; 1% SDS in calcitonin preparation, vaginal wash 2 hours after insertion): 29.2 | protease activity (intravaginal protease; 1% SDS in calcitonin preparation, vaginal wash plus cotton ball 2 hours after insertion): 6.84 BAEE units/mg protein | ratio of decreased serum calcium concentration against the control ([6]; porcine calcitonin 20 I.U./ml, 3 mg BSA, SDS 0.05, 0.1, 0.5 and 1 w/v%, pH 5.0, 50 microliters intravaginal, 2 hours, control without SDS): increased correspondingly with increasing concentration of SDS

insulin
Glucose Concentration in Serum (oophorectomized rats [8]; [9]): 53 ± 24.6 mg/dL | Glucose Concentration in Serum relative to prior to administration (100) (oophorectomized rats [8]; [9]): 70.7% | decrease of blood sugar level in comparison with that prior to drug administration (oophorectomized rats [8]; BSA, 2 hours): about 30%
